# Source: article PMC10900215 (JACS Au, 2024)
# pIC50: −log10 of the molar value. Entries after “also recorded” stand apart in the source; their conditions may differ.
# Tests used:
# PRDM9 = PRDM9 (Homo sapiens, UniProt Q9NQV7); assay: Protein methyltransferases selectivity profile; format: biochemical; conditions: control compound
# Text: (§1) Remaining activity [%][a]
# (§2) Methyltransferase Control IC50 (M) Control […]
# (§3) concerning the buffer solution containing DMSO. The closer to 100% these values are, the weaker the […]
# (§4) Table S2. Hook curve amplitudes derived from the TR-FRET ternary complex formation assay with all compounds in the paper. n = number of independent measurements (biological replicates).
# (§5) Compound amplitude n Compound amplitude n […]
# METTL3-14 [1] = biological target: T1, METTL3-14 (Homo sapiens, UniProt Q86U44); assay: Protein methyltransferases selectivity profile; format: biochemical
# Text: as §1, §2, §3, §4, §5
# Target sequence in this assay (Q86U44 whole entry): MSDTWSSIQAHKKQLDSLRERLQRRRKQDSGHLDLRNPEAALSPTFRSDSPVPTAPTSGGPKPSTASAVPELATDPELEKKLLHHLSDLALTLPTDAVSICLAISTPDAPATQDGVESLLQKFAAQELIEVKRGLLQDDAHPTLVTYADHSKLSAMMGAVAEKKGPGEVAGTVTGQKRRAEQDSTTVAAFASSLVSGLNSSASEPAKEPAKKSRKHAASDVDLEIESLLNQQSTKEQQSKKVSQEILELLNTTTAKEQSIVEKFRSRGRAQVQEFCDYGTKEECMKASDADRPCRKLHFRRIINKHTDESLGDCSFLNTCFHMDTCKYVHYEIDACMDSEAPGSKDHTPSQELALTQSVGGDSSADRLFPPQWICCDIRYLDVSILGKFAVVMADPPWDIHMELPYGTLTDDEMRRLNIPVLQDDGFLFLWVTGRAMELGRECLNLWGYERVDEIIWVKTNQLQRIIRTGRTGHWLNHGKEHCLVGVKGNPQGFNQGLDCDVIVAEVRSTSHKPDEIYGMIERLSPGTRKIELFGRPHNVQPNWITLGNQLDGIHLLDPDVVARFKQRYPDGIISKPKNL
# Target sequence in this assay (Q9HCE5 whole entry partner): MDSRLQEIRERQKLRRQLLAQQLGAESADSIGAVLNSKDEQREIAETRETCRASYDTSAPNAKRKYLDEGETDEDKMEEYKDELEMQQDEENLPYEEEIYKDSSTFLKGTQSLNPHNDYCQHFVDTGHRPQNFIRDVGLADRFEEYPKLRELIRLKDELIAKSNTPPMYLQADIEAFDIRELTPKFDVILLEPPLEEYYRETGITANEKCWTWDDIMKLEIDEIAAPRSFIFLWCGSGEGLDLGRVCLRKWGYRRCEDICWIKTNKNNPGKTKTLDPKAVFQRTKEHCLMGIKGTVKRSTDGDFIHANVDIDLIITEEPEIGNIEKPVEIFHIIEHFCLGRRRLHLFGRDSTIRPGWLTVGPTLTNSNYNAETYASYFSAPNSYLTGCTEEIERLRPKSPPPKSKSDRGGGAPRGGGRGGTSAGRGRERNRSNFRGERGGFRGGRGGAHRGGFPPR
# SETD2 = SETD2 (Homo sapiens, UniProt Q9BYW2); assay: Protein methyltransferases selectivity profile; format: biochemical; conditions: control compound
# Text: as §1, §2, §3, §4, §5
# SMYD3 = SMYD3 (Homo sapiens, UniProt Q9H7B4); assay: Protein methyltransferases selectivity profile; format: biochemical; conditions: control compound
# Text: as §1, §2, §3, §4, §5
# METTL3 [2] = biological target: T2, METTL3 (Homo sapiens, UniProt Q86U44+Q96SW2); assay: In vitro ubiquitination assay, METTL3; format: biochemical; conditions: 2, 8, and 32 μM, 30 °C, 2 h
# T2 construct: Human full-length METTL3-METTL14 was expressed and purified as described above; Human full-length cereblon-DDB1 and 6xHis-CUL4A-6xHis-RBX1 were coexpressed; StrepII (N); GFP (N); TEV site (N); made in house; host or cells: baculovirus/Sf9 insect cells (METTL3-METTL14, cereblon-DDB1, CUL4A-RBX1)
# T2 sequence (Q86U44 whole entry): as the sequence (Q86U44 whole entry) above
# T2 sequence (Q9HCE5 whole entry partner): as the sequence (Q9HCE5 whole entry partner) above
# T2 sequence (Q96SW2 whole entry): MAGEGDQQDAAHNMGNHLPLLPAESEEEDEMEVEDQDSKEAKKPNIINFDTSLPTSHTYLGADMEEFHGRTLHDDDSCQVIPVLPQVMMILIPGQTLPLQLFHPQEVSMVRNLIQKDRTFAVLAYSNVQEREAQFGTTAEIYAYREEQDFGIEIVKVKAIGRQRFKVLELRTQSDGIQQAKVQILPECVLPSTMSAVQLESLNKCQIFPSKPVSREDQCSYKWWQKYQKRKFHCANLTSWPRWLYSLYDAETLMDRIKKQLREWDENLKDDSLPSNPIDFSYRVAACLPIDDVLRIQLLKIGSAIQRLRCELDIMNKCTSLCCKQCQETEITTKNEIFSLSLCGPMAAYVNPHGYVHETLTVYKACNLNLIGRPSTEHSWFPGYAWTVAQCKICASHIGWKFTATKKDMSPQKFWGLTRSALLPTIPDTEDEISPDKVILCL
# T2 sequence (Q16531 whole entry partner): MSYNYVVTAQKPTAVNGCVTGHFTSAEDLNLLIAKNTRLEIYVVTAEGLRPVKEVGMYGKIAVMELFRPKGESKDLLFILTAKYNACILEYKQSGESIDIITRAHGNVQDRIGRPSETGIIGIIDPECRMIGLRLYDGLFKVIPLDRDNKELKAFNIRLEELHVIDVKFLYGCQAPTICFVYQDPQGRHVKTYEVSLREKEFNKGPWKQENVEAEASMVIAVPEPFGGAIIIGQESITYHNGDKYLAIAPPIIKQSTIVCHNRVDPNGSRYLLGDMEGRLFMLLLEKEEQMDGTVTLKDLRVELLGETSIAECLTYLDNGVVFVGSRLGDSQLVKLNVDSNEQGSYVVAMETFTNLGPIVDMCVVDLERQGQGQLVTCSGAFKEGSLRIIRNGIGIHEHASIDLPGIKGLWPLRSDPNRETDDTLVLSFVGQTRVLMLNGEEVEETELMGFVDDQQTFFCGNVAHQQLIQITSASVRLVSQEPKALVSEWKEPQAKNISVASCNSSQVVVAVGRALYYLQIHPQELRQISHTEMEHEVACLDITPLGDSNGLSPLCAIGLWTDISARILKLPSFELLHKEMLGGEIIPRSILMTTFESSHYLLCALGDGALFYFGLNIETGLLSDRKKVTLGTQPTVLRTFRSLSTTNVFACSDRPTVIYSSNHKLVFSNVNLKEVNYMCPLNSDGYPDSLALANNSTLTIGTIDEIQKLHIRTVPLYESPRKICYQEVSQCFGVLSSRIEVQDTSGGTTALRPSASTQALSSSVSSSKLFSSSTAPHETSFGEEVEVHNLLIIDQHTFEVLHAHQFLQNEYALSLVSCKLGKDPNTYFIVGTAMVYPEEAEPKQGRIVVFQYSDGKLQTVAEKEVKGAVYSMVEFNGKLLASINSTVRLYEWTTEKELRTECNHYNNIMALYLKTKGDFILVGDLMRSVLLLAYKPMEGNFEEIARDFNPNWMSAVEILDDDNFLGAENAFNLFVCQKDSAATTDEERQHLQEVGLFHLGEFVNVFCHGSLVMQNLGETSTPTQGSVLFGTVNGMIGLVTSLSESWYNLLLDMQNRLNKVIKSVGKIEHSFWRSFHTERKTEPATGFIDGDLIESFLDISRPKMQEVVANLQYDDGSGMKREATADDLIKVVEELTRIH
# T2 sequence (Q13619 whole entry partner): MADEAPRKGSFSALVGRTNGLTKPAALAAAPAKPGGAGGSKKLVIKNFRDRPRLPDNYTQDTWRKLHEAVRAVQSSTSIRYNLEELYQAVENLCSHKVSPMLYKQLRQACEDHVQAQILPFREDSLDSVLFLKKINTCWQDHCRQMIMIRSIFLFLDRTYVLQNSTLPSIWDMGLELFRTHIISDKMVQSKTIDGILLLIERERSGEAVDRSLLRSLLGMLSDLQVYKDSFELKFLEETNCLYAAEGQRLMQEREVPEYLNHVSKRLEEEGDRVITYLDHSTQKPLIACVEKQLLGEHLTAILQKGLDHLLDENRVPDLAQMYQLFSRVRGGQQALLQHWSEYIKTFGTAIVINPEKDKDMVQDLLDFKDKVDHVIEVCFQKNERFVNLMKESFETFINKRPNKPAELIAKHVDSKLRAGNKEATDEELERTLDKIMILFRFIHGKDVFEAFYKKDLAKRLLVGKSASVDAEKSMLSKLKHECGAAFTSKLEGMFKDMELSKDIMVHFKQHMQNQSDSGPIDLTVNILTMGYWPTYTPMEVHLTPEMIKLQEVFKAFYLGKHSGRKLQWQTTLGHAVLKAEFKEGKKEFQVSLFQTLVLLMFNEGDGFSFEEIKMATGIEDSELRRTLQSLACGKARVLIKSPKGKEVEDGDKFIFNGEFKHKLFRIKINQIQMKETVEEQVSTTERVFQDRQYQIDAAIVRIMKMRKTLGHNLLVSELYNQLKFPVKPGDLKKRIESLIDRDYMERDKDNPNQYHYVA
# T2 sequence (P62877 whole entry partner): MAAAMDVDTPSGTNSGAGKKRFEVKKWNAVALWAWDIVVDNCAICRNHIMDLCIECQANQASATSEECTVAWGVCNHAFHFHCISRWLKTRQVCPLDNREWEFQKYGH
# Experimental: For the cell-free in vitro ubiquitination of METTL3-METTL14 purified E1, E2, ubiquitin, CUL4A-RBX1, Cereblon-DDB1, and METTL3-METTL14 were used. Human full-length METTL3-METTL14 was expressed and purified as described above. […] Purified recombinant human UBE1 E1 (E-305–025) was purchased from R&D Systems, UbcH5a E2 (23–029) from Merck and ubiquitin (SBB-UP0013) from South Bay Bio. For the ubiquitination reaction, components were mixed to final concentrations of 0.06 μM UBE1, 1.96 μM UbcH5a, 39 μM ubiquitin, 0.33 μM CUL4A-RBX1, 0.33 μM Cereblon-DDB1, 0.5 μM METTL3-METTL14, and different concentrations of compound 14 or me-14 (0, 2, 8, or 32 μM) in reaction buffer (50 mM Tris-HCl pH 7.6, 5 mM MgCl2, 0.2 mM CaCl2, 1 mM DTT, 100 mM NaCl, 0.01% BSA, 0.01% Triton X-100). The final reaction volume was 15 μL. After the addition of 2 mM ATP (or the equal volume of water for the control without ATP), the reaction mixture was incubated for 2 h at 30 °C. […] The signals were quantified by using the Image Studio Lite software. To determine the percentage of ubiquitinated METTL3, the fraction of unmodified METTL3 was calculated by dividing the signal of the band assigned to unmodified METTL3 by the signal of the area containing both the unmodified and (poly)ubiquitinated METTL3 and normalizing to the control without ATP. […]
# METTL3 [3] = biological target: T3, METTL3 (Homo sapiens, UniProt Q86U44); assay: Cellular thermal shift assay (CETSA) in MOLM-13, METTL3; format: cell-based; conditions: MOLM-13, 54 °C
# T3 construct: METTL3–14 degradation up to 70% of the endogenous level; endogenous in cells; host or cells: MOLM-13, PC3, DU145
# T3 sequence (Q86U44 2-580 limits assumed): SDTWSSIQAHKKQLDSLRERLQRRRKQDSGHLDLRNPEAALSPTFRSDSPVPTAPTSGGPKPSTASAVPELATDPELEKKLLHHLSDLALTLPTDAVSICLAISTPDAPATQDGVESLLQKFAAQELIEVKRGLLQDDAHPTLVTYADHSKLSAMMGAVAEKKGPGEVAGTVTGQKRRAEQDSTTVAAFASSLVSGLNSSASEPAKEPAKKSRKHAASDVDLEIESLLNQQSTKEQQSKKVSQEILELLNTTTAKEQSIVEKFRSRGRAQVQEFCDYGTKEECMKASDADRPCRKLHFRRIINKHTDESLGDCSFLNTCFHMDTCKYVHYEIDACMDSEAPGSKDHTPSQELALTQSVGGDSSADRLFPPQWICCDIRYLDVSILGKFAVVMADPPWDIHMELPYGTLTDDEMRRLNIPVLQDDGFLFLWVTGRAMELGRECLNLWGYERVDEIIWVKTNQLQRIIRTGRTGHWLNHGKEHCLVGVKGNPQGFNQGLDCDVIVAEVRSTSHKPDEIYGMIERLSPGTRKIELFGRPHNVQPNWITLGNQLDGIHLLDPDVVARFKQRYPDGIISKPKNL
# T3 sequence (Q9HCE5 whole entry partner): as the sequence (Q9HCE5 whole entry partner) above
# Experimental: One million of MOLM-13 cells were suspended in 100 μL of PBS (10010023, Thermo Fisher Scientific) containing 2× protease inhibitor cocktail (11697498001, Roche), for each condition tested. Cells were incubated with compounds or DMSO control (1% (v/v)) for 1 h at 37 °C. They were then heat treated at 54 °C in a thermoblock for 3 min, followed by cooling to room temperature (3 min). Next, samples were lysed by threefreeze–thaw cycles in liquid nitrogen and centrifuge at 16000 g for 30 min, 4 °C. Equal volumes of control and tested samples (12 μL) were analyzed by Western blot. The changes in the amount of METTL3 protein (after normalization for β-actin and/or GAPDH) were monitored by performing densitometry in Image Studio Lite software and analyzed in GraphPad Prism 9.
# METTL3 [4] = biological target: T3, METTL3; assay: Cellular degradation assay (Western blot), METTL3 in MOLM-13; format: cell-based; conditions: MOLM-13, 10 μM
# In short: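 24h PROTAC exposure (DMSO 0.1% v/v control), 37 °C, 5% CO2; RIPA lysis, SDS-PAGE, nitrocellulose, anti-METTL3/anti-METTL14 blots, GAPDH/β-actin loading controls, IR imaging, densitometry.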
# Cereblon (CRBN) = biological target: T4, Cereblon (CRBN) (Homo sapiens, UniProt Q96SW2); assay: Cellular thermal shift assay (CETSA) in MOLM-13, Cereblon; format: cell-based; conditions: MOLM-13, 54 °C
# T4 construct: endogenous in cells; host or cells: MOLM-13
# T4 sequence (Q96SW2 whole entry): as the sequence (Q96SW2 whole entry) above
# METTL3-14 [5] = biological target: T1, METTL3-14; assay: Cellular degradation assay (Western blot), METTL3 and/or METTL14 (METTL3–14) in MOLM-13; format: cell-based; set-up: METTL3–14 degradation up to 70% of the endogenous level; endogenous in cells; host or cells: MOLM-13, KASUMI-1, THP-1, NOMO-1
# Experimental: MOLM-13, NOMO-1, THP-1, Kasumi-1, PC3, and DU145 cell lines were obtained from DSMZ-German Collection of Microorganisms and Cell Cultures GmbH. […] All cell lines were tested negative for mycoplasma contamination (PCR-based assay by Microsynth, Switzerland).
# METTL3 (and METTL14) protein degradation was monitored by Western blot. Cells were treated with the indicated concentration of PROTACs or DMSO control (0.1% (v/v)) for 24h, 37 °C with 5% CO2. […] After SDS-PAGE, proteins were transferred to a nitrocellulose membrane, blocked (with 5% milk, 0.5% BSA in TBST buffer), and incubated overnight with primary antibodies. […] Densitometry was performed in Image Studio Lite software and analyzed in GraphPad Prism 9.
# Target sequence in this assay (Q86U44 2-580 limits assumed): as the sequence (Q86U44 2-580 limits assumed) above
# Target sequence in this assay (Q9HCE5 whole entry partner): as the sequence (Q9HCE5 whole entry partner) above
# [6] = biological target: His-GST-METTL3^MTD-METTL14^MTD (human) (UniProt Q86U44)
# Chain of His-GST-METTL3^MTD-METTL14^MTD (human) (Q86U44 354-580, chain 1 of 2): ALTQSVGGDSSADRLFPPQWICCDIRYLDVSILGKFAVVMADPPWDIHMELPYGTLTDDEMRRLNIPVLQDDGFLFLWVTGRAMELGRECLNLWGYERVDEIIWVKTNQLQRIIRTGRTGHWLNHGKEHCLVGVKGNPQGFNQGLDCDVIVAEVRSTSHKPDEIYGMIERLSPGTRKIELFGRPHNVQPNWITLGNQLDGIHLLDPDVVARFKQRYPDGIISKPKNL
# Chain of His-GST-METTL3^MTD-METTL14^MTD (human) (chain, as listed by the source, chain 2 of 2): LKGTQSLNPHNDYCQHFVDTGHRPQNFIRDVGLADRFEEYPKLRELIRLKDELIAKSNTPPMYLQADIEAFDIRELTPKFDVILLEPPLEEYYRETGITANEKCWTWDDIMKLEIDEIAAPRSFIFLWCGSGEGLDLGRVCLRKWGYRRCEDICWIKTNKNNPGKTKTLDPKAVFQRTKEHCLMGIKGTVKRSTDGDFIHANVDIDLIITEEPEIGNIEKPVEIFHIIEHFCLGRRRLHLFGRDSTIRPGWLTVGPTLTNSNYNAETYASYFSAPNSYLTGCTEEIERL
compound,measurement,setting,value
CN1C(=O)[C@@]23C[C@]4([C@]56C[C@@]78SS[C@@](CO)(C(=O)N7[C@H]5Nc5ccccc56)N(C)C8=O)c5ccccc5N[C@@H]4N2C(=O)[C@]1(CO)SS3 [Chaetocin],pIC50,PRDM9,6.04
"Nc1ncnc2c1ncn2[C@@H]1O[C@H](CSCC[C@H](N)C(=O)O)[C@@H](O)[C@H]1O [SAH, S-(5’-adenosyl)-L-homocysteine]",pIC50,METTL3-14 [1],6.82
same,pIC50,SETD2,5.86
same,pIC50,SMYD3,5.07
CN1C(=O)CCC(N2C(=O)c3cccc(NCCCC(=O)NCc4cccc(CNc5cc(N6CCC7(CC6)CN(c6cc(F)c(CN8CCC(C)(C)CC8)cc6F)CC(=O)N7)ncn5)c4)c3C2=O)C1=O (stereo not drawn) [me-14],ubiquitination of METTL3 compared to the control without compound,METTL3 [2],does not increase
same,stabilization of METTL3 (CETSA),METTL3 [3],stabilize METTL3 in a concentration-dependent manner; also recorded: stabilization of METTL3
same,METTL3 levels,METTL3 [4],increased METTL3 levels
same,stabilization of Cereblon (CETSA),Cereblon (CRBN),not of CRBN
same,degradation of METTL3 and/or METTL14,"METTL3-14 [5]; MOLM-13, 2 μM, 24 h, Western blot",did not show any METTL3–14 degradation
same,"degradation of METTL3 and METTL14, concentration dependence","METTL3-14 [5]; MOLM-13, five concentrations",no degradation
CRBN^TBD-Avi(biotin) (from UniProt Q96SW2 318-442) (domain or fragment),degradation of METTL3 and METTL14 in MOLM-13 cells (Western blot) with PROTAC 30 at five concentrations; Hook effect,[6],60%
same,degradation of METTL3 in MOLM-13 cells (Western blot) with PROTAC 14 at five concentrations; Hook effect,[6],50%
